The target of this assay is KHK (Homo sapiens (Human), UniProt P50053). Kind of assay: In Vitro KHK Enzyme Assay (HTMS).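 Further: primary screen measuring inhibition of KHK-catalysed conversion of D-fructose into fructose 1-phosphate.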 It is filed as biochemical. The settings on record: 200 μM fructose, 100 μM ATP, 2 nM KHK, 60 min at 25° C.; Fructose-1-P detected by high throughput mass spectrometry.

pIC50: −log10 of the molar value. Counter-ions that a name gives are not always drawn.

KHK, sequence (P50053 whole entry): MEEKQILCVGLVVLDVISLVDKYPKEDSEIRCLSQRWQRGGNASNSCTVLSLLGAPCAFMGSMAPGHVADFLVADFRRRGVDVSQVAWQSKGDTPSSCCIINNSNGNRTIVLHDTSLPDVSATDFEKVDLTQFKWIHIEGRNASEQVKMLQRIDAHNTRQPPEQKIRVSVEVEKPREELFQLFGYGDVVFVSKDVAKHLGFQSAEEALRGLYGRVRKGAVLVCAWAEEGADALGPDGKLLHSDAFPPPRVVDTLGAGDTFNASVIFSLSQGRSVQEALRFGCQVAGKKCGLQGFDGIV
Method: An enzymatic assay was developed to measure KHK-mediated conversion of D-fructose to Fructose-1-P (F-1-P) using High Throughput Mass Spectroscopy (HTMS) as a means of product detection. This assay served as a primary screen to evaluate the ability to inhibit KHK enzyme activity and it has been adapted to high throughput mass spectrometry (HTMS, BioTrove RapidFire™) format for higher throughput.
The compounds to be tested were dosed in 12-points concentration from 511 μM to 0.5 μM. […] The assay was carried out in 384-well plate format.

As for `CSc1nn(-c2ccccc2)c2cc(N3CCNCC3)ccc12` [Compound 1, 3-(Methylsulfanyl)-1-phenyl-6-piperazin-1-yl-1H-indazole HCl salt], the pIC50 (in general, −log10 of the IC50, conventionally taken in molar units) is 6.25. The result for `CSc1nn(-c2ccccc2)c2cc(NC(=O)C3CNC3)ccc12` [Compound 2, N-(3-(Methylthio)-1-phenyl-1H-indazol-6-yl)azetidine-3-carboxamide hydrochloride] reads 6.66; that for `CSc1nn(-c2ccccc2)c2cc(NC(=O)CC3CCCCN3)ccc12` (centres unmarked) [Compound 3, N-(3-(Methylthio)-1-phenyl-1H-indazol-6-yl)-2-(piperidin-2-yl)acetamide hydrochloride], 6.07. In turn, `CSc1nn(-c2ccccc2)c2cc(NC(=O)NC3CCNC3)ccc12` (centres unmarked) [Compound 4, 1-(3-(Methylthio)-1-phenyl-1H-indazol-6-yl)-3-(pyrrolidin-3-yl)urea hydrochloride] gave a pIC50 of 6.35. With `CSc1nn(-c2ccccc2)c2cc(NC(=O)C3CCNC3)ccc12` (centres unmarked) [Compound 5, N-(3-(Methylthio)-1-phenyl-1H-indazol-6-yl)pyrrolidine-3-carboxamide hydrochloride], the negative logarithm of the IC50 (pIC50) was 6.23. The result for `CSc1nn(-c2ccccc2)c2cc(NC(=O)NC3CCNCC3)ccc12` [Compound 7, 1-(3-(Methylthio)-1-phenyl-1H-indazol-6-yl)-3-(piperidin-4-yl)urea hydrochloride] reads 6.15. `CSc1nn(-c2ccccc2)c2cc(NC(=O)c3ccncc3)ccc12` [Compound 8, N-(3-Methylsulfanyl-1-phenyl-1H-indazol-6-yl)-isonicotinamide] showed a pIC50 of 6.00. Turning to `CSc1nn(-c2ccccc2)c2cc(NC(=O)Cc3ccncc3)ccc12` [Compound 9, N-(3-(Methylthio)-1-phenyl-1H-indazol-6-yl)-2-(pyridin-4-yl)acetamide], the pIC50 was 5.57.

`CSc1nn(-c2ccccc2)c2cc(N3CC4CC3CN4)ccc12` (centres unmarked) [Compound 10, 2-(3-(methylthio)-1-phenyl-1H-indazol-6-yl)-2,5-diaza-bicyclo[2.2.1]heptane hydrochloride] had a pIC50 of 6.15. The result for `CSc1nn(-c2ccccc2)c2cc(N3CCCNCC3)ccc12` [Compound 11, 6-(1,4-Diazepan-1-yl)-3-(methylthio)-1-phenyl-1H-indazole hydrochloride] reads 6.27; that for `CSc1nn(-c2ccccc2)c2cc(NC(=O)C3CCCNC3)ccc12` (centres unmarked) [Compound 12, N-(3-(Methylthio)-1-phenyl-1H-indazol-6-yl)piperidine-3-carboxamide hydrochloride], 6.51. On to `CSc1nn(-c2ccccc2)c2cc(NC(=O)C3CCCN3)ccc12` (centres unmarked) [Compound 13, N-(3-(Methylthio)-1-phenyl-1H-indazol-6-yl)pyrrolidine-2-carboxamide hydrochloride], for which the pIC50 was 6.59. The result for `CSc1nn(-c2ccccc2)c2cc(NC(=O)c3cccnc3)ccc12` [Compound 14, N-(3-(Methylthio)-1-phenyl-1H-indazol-6-yl)nicotinamide] reads 6.64; that for `CSc1nn(-c2ccccc2)c2cc(N3CC(N4CCNCC4)C3)ccc12` [Compound 15, 3-(Methylthio)-1-phenyl-6-(3-(piperazin-1-yl)azetidin-1-yl)-1H-indazole hydrochloride], 6.25.

On to `CSc1nn(-c2ccccc2)c2cc(N3CCN(C(=O)C4CCCNC4)CC3)ccc12` (centres unmarked) [Compound 16, 4-(3-Methylsulfanyl-1-phenyl-1H-indazol-6-yl)-piperazin-1-yl]-piperidin-3-yl-methanone hydrochloride], for which the pIC50 is 5.54.

As for `CSc1nn(-c2ccccc2)c2cc(N3CCN(C(=O)c4ccncc4)CC3)ccc12` [Compound 17, (4-(3-(Methylthio)-1-phenyl-1H-indazol-6-yl)piperazin-1-yl)(pyridin-4-yl)methanone], the pIC50 was 5.69. In the case of `CSc1nn(-c2ccccc2)c2cc(N3CCN(Cc4ccncc4)CC3)ccc12` [Compound 18, 3-Methylsulfanyl-1-phenyl-6-(4-pyridin-4-ylmethyl-piperazin-1-yl)-1H-indazole Hydrochloride], the negative logarithm of the IC50 (pIC50) was 5.69. The result for `CSc1nn(-c2ccccc2)c2cc(N3CCC(N4CCNCC4)C3)ccc12` (centres unmarked) [Compound 19, 3-(Methylthio)-1-phenyl-6-(3-(piperazin-1-yl)pyrrolidin-1-yl)-1H-indazole hydrochloride] reads 6.25; that for `CSc1nn(-c2ccccc2)c2cc(N3CCC(N4CCNCC4)CC3)ccc12` [Compound 20, 3-(Methylthio)-1-phenyl-6-(4-(piperazin-1-yl)piperidin-1-yl)-1H-indazole hydrochloride], 6.17.

With `CSc1nn(-c2ccccc2)c2cc(N3CCN(C4CNC4)CC3)ccc12` [Compound 21, 6-(4-(Azetidin-3-yl)piperazin-1-yl)-3-(methylthio)-1-phenyl-1H-indazole hydrochloride], the pIC50 was 5.55. The result for `CSc1nn(-c2ccccc2)c2cc(N3CCN(C4CCNC4)CC3)ccc12` (centres unmarked) [Compound 22, 3-(Methylthio)-1-phenyl-6-(4-(pyrrolidin-3-yl)piperazin-1-yl)-1H-indazole hydrochloride] reads 5.35; that for `CSc1nn(-c2ccccc2)c2cc(N3CCN(C4CCNCC4)CC3)ccc12` [Compound 23, 3-(Methylthio)-1-phenyl-6-(4-(piperidin-4-yl)piperazin-1-yl)-1H-indazole hydrochloride], 6.17; that for `CSc1nn(-c2ccccc2)c2cc(N3CCN(c4ccccn4)CC3)ccc12` [Compound 24, 3-(Methylthio)-1-phenyl-6-(4-(pyridin-2-yl)piperazin-1-yl)-1H-indazole], 5.81. As to `CSc1nn(-c2ccccc2)c2cc(N3CCN(C4CCNC4)C3=O)ccc12` (centres unmarked) [Compound 25, 1-(3-(Methylthio)-1-phenyl-1H-indazol-6-yl)-3-(pyrrolidin-3-yl)imidazolidin-2-one hydrochloride], the pIC50 was 6.34. The result for `CSc1nn(-c2ccccc2)c2cc(N3CCN(C4CCNCC4)C3=O)ccc12` [Compound 26, 1-(3-(Methylthio)-1-phenyl-1H-indazol-6-yl)-3-(piperidin-4-yl)imidazolidin-2-one hydrochloride] reads 5.83. The result for `CSc1nn(-c2ccccc2)c2cc(N3CCN(CC4CCNC4)C3=O)ccc12` (centres unmarked) [Compound 27, 1-(3-(Methylthio)-1-phenyl-1H-indazol-6-yl)-3-(pyrrolidin-3-ylmethyl)imidazolidin-2-one hydrochloride] reads 5.29; that for `CSc1nn(-c2ccccc2)c2cc(N3CCN(CC4CCCNC4)C3=O)ccc12` (centres unmarked) [Compound 28, 1-(3-(Methylthio)-1-phenyl-1H-indazol-6-yl)-3-(piperidin-3-ylmethyl)imidazolidin-2-one hydrochloride], 5.52. The result for `CSc1nn(-c2ccccc2)c2cc(N3CCN(c4ccncc4)CC3)ccc12` [Compound 29, 3-(Methylthio)-1-phenyl-6-(4-(pyridin-4-yl)piperazin-1-yl)-1H-indazole] reads 6.52; that for `CSc1nn(-c2ccccc2)c2cc(N3CCN(C(=O)c4ccccn4)CC3)ccc12` [Compound 30], 4.79; that for `CSc1nn(-c2ccccc2)c2cc(N3CCN(C(=O)c4cccnc4)CC3)ccc12` [Compound 31, (4-(3-(Methylthio)-1-phenyl-1H-indazol-6-yl)piperazin-1-yl)(pyridin-3-yl)methanone], 5.31. In the case of `CSc1nn(-c2ccccc2)c2cc(N3CCN(Cc4cccnc4)CC3)ccc12` [Compound 32, 3-(Methylthio)-1-phenyl-6-(4-(pyridin-3-ylmethyl)piperazin-1-yl)-1H-indazole hydrochloride], the pIC50 was 5.22.

`CSc1nn(-c2ccccc2)c2cc(N3CCN(C(=O)C4CCCN4)CC3)ccc12` (centres unmarked) [Compound 33, (4-(3-(Methylthio)-1-phenyl-1H-indazol-6-yl)piperazin-1-yl)(pyrrolidin-2-yl)methanone hydrochloride]: the pIC50 is 5.27. The result for `CSc1nn(-c2ccccc2)c2cc(N3CCN(C(=O)C4CCNCC4)CC3)ccc12` [Compound 34, (4-(3-(Methylthio)-1-phenyl-1H-indazol-6-yl)piperazin-1-yl)(piperidin-4-yl)methanone hydrochloride] reads 6.08; that for `CSc1nn(-c2ccccc2)c2cc(N3CCN(C(=O)C4CCCCN4)CC3)ccc12` (centres unmarked) [Compound 35, (4-(3-(Methylthio)-1-phenyl-1H-indazol-6-yl)piperazin-1-yl)(piperidin-2-yl)methanone], 6.37; that for `CCc1nn(-c2ccccc2)c2cc(N3CCC(N4CCNCC4)CC3)ccc12` [Compound 36, 3-Ethyl-1-phenyl-6-(4-piperazin-1-yl-piperidin-1-yl)-1H-indazole hydrochloride], 6.05. The compound `CCc1nn(-c2ccccc2)c2cc(-c3ccc(OC4CCNCC4)cc3)ccc12` [Compound 37, 3-Ethyl-1-phenyl-6-(4-(piperidin-4-yloxy)phenyl)-1H-indazole hydrochloride] showed a pIC50 of 5.23. The compound `CCc1nn(-c2ccccc2)c2cc(NC(=O)c3ccc4[nH]cnc4c3)ccc12` [Compound 38, N-(3-Ethyl-1-phenyl-1H-indazol-6-yl)-1H-benzo[d]imidazole-5-carboxamide] gave a negative-log IC50 (pIC50) of 6.03. The result for `CCc1nn(-c2ccccc2)c2cc(NC(=O)c3cccc(C(=N)N)c3)ccc12` [Compound 40, 3-Carbamimidoyl-N-(3-ethyl-1-phenyl-1H-indazol-6-yl)benzamide acetate] reads 6.17; that for `CCc1nn(-c2ccccc2)c2cc(OC3CN(C4CCNCC4)C3)ccc12` [Compound 41, 3-Ethyl-1-phenyl-6-(1-(piperidin-4-yl)azetidin-3-yloxy)-1H-indazole hydrochloride], < 4.52. The result for `CCc1nn(-c2ccccc2)c2cc(N3CCNCC3)ccc12` [Compound 42, 3-Ethyl-1-phenyl-6-(piperazin-1-yl)-1H-indazole] reads 6.24; that for `CCc1nn(-c2ccccc2)c2cc(N3CCC(N4CCNCC4)C3)ccc12` (centres unmarked) [Compound 43, 3-Ethyl-1-phenyl-6-(3-(piperazin-1-yl)pyrrolidin-1-yl)-1H-indazole hydrochloride], 5.63.

The record behind these values is patent US8822447B2, “Indazole compounds useful as ketohexokinase inhibitors” (Janssen Pharmaceutica NV, priority 2010, dated 2014).
